Measured values taken from PubChem BioAssay AID1963985 (Molecular Pharmacology Branch, DTP, NCI, 2024).

System: 252836-082-R-J2-PDC tumor spheroids, viability
Experiment: Anticancer human tumor 252836-082-R-J2-PDC patient-derived head and neck squamous cell carcinoma cell line growth inhibition [PI3K]
Conditions: spheroids with HUVEC and MSC; for IC50: curve of first compound; for viability, T/C: stronger effect = lower value
Method in brief: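 Multi-cell spheroids combine tumor cells with HUVEC and human MSCs, treated with targeted agents alone or with inavolisib, alpelisib, duvelisib or copanlisib. Concentrations fall in half-log steps from at or near clinical Cmax, or from 10 microM where Cmax is unknown; viability read-out.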
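Further: spheroids exposed to agents for seven days before readout.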
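Wherever viability, T/C is given: percent of vehicle DMSO control viability so 100% = untreated growth.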

In the case of `CC1(C)CCC(Nc2ncc(C(F)(F)F)c(-c3c[nH]c4c(P(C)(C)=O)c(C#N)ccc34)n2)CN1` (centres undefined) + CC(Nc1ncnc2nc[nH]c12)c1cc2cccc(Cl)c2c(=O)n1-c1ccccc1, the IC50 (second compound 0.0316 µM) is reported as under 31.6 nM, the IC50 (second compound 0.1 µM) is reported as under 31.6 nM and the IC50 (second compound 0.316 µM) is reported as under 31.6 nM. It also gave an IC50 (second compound 1 µM) of under 31.6 nM, an IC50 (second compound 3.16 µM) of under 31.6 nM and an IC50 (second compound 10 µM) of under 31.6 nM. It also gave a viability, T/C (second compound 0.0316 µM, first compound 0.0316 µM) of 31.1%, a viability, T/C (second compound 0.0316 µM, first compound 0.1 µM) of 26.6% and a viability, T/C (second compound 0.0316 µM, first compound 0.316 µM) of 28.6%. The viability, T/C (second compound 0.0316 µM, first compound 1 µM) was 32.2%, the viability, T/C (second compound 0.0316 µM, first compound 3.16 µM) was 34.7% and the viability, T/C (second compound 0.0316 µM, first compound 10 µM) was 4.13%. For the same molecule, the viability, T/C (second compound 0.1 µM, first compound 0.0316 µM) was 34.2%, the viability, T/C (second compound 0.1 µM, first compound 0.1 µM) was 27.4% and the viability, T/C (second compound 0.1 µM, first compound 0.316 µM) was 31.6%. It also gave a viability, T/C (second compound 0.1 µM, first compound 1 µM) of 26.4%, a viability, T/C (second compound 0.1 µM, first compound 3.16 µM) of 36.9% and a viability, T/C (second compound 0.1 µM, first compound 10 µM) of 5.65%. The viability, T/C (second compound 0.316 µM, first compound 0.0316 µM) was 32.4%, the viability, T/C (second compound 0.316 µM, first compound 0.1 µM) was 32.9% and the viability, T/C (second compound 0.316 µM, first compound 0.316 µM) was 27.7%. For the same molecule, the viability, T/C (second compound 0.316 µM, first compound 1 µM) was 30.1%, the viability, T/C (second compound 0.316 µM, first compound 3.16 µM) was 33.8% and the viability, T/C (second compound 0.316 µM, first compound 10 µM) was 4.38%. It also gave a viability, T/C (second compound 1 µM, first compound 0.0316 µM) of 27.9%, a viability, T/C (second compound 1 µM, first compound 0.1 µM) of 31.8% and a viability, T/C (second compound 1 µM, first compound 0.316 µM) of 32.4%. It also gave a viability, T/C (second compound 1 µM, first compound 1 µM) of 28.7%, a viability, T/C (second compound 1 µM, first compound 3.16 µM) of 33.4% and a viability, T/C (second compound 1 µM, first compound 10 µM) of 4.12%. For the same molecule, the viability, T/C (second compound 3.16 µM, first compound 0.0316 µM) was 26.3%, the viability, T/C (second compound 3.16 µM, first compound 0.1 µM) was 26.2% and the viability, T/C (second compound 3.16 µM, first compound 0.316 µM) was 28%. The viability, T/C (second compound 3.16 µM, first compound 1 µM) was 31.9%, the viability, T/C (second compound 3.16 µM, first compound 3.16 µM) was 25.9% and the viability, T/C (second compound 3.16 µM, first compound 10 µM) was 3.79%. For the same molecule, the viability, T/C (second compound 10 µM, first compound 0.0316 µM) was 27.2%, the viability, T/C (second compound 10 µM, first compound 0.1 µM) was 21.5% and the viability, T/C (second compound 10 µM, first compound 0.316 µM) was 26%. For the same molecule, the viability, T/C (second compound 10 µM, first compound 1 µM) was 23%, the viability, T/C (second compound 10 µM, first compound 3.16 µM) was 22.6% and the viability, T/C (second compound 10 µM, first compound 10 µM) was 1.83%.
`Cn1cnc2c(F)c(Nc3ccc(Br)cc3Cl)c(C(=O)NOCCO)cc21` + COc1c(OCCCN2CCOCC2)ccc2c3n(c(=NC(=O)c4cnc(N)nc4)nc12)CCN3 was tested, and the IC50 (second compound 0.00316 µM) was 2050 nM, the IC50 (second compound 0.01 µM) was 1070 nM and the IC50 (second compound 0.0316 µM) was 78.4 nM. For the same molecule, the IC50 (second compound 0.1 µM) was under 9.49 nM, the IC50 (second compound 0.316 µM) was under 9.49 nM and the IC50 (second compound 1 µM) was under 9.49 nM. The viability, T/C (second compound 0.00316 µM, first compound 0.00949 µM) was 91.6%, the viability, T/C (second compound 0.00316 µM, first compound 0.03 µM) was 71.5% and the viability, T/C (second compound 0.00316 µM, first compound 0.0949 µM) was 82.4%. For the same molecule, the viability, T/C (second compound 0.00316 µM, first compound 0.3 µM) was 80.4%, the viability, T/C (second compound 0.00316 µM, first compound 0.949 µM) was 75.3% and the viability, T/C (second compound 0.00316 µM, first compound 3 µM) was 37.5%. For the same molecule, the viability, T/C (second compound 0.01 µM, first compound 0.00949 µM) was 73.5%, the viability, T/C (second compound 0.01 µM, first compound 0.03 µM) was 70.3% and the viability, T/C (second compound 0.01 µM, first compound 0.0949 µM) was 76.7%. It also gave a viability, T/C (second compound 0.01 µM, first compound 0.3 µM) of 65.2%, a viability, T/C (second compound 0.01 µM, first compound 0.949 µM) of 52.1% and a viability, T/C (second compound 0.01 µM, first compound 3 µM) of 35.5%. The viability, T/C (second compound 0.0316 µM, first compound 0.00949 µM) was 59.6%, the viability, T/C (second compound 0.0316 µM, first compound 0.03 µM) was 48.8% and the viability, T/C (second compound 0.0316 µM, first compound 0.0949 µM) was 49%. The viability, T/C (second compound 0.0316 µM, first compound 0.3 µM) was 46.2%, the viability, T/C (second compound 0.0316 µM, first compound 0.949 µM) was 34.1% and the viability, T/C (second compound 0.0316 µM, first compound 3 µM) was 25.1%. For the same molecule, the viability, T/C (second compound 0.1 µM, first compound 0.00949 µM) was 31.6%, the viability, T/C (second compound 0.1 µM, first compound 0.03 µM) was 33.3% and the viability, T/C (second compound 0.1 µM, first compound 0.0949 µM) was 33.1%. The viability, T/C (second compound 0.1 µM, first compound 0.3 µM) was 29.5%, the viability, T/C (second compound 0.1 µM, first compound 0.949 µM) was 18% and the viability, T/C (second compound 0.1 µM, first compound 3 µM) was 7.77%. The viability, T/C (second compound 0.316 µM, first compound 0.00949 µM) was 14.8%, the viability, T/C (second compound 0.316 µM, first compound 0.03 µM) was 12.2% and the viability, T/C (second compound 0.316 µM, first compound 0.0949 µM) was 9.2%. For the same molecule, the viability, T/C (second compound 0.316 µM, first compound 0.3 µM) was 7.79%, the viability, T/C (second compound 0.316 µM, first compound 0.949 µM) was 3.35% and the viability, T/C (second compound 0.316 µM, first compound 3 µM) was 0.38%. For the same molecule, the viability, T/C (second compound 1 µM, first compound 0.00949 µM) was 2.53%, the viability, T/C (second compound 1 µM, first compound 0.03 µM) was 2.17% and the viability, T/C (second compound 1 µM, first compound 0.0949 µM) was 2.32%. For the same molecule, the viability, T/C (second compound 1 µM, first compound 0.3 µM) was 0.64%, the viability, T/C (second compound 1 µM, first compound 0.949 µM) was 3.69% and the viability, T/C (second compound 1 µM, first compound 3 µM) was 0.18%.
